From US8828940B2, “Method of treating an ischemia-reperfusion injury-related disorder by administering GPCR ligands” (priority 2006, dated 2014)
No end group written: not given here.

Experiments:
[1] = system: cardiac remodeling induced by Isoproterenol in Wistar rats; test: Cardiac remodeling induced by Isoproterenol; assay type: in vivo, rat
Description: The effect of the peptides […] (SEQ ID NO:10), […]-dimer ([…]) (SEQ ID NO9), P33_V (SEQ ID NO:7), P33-dimer (P33_D) (SEQ ID NO:6) on cardiac remodeling, was tested by determining their effect on heart hypertrophy and fibrosis (deposition of collagen I, III, and fibronectin) induced by Isoproterenol. Losartan (an antagonist of the known angiotensin II receptor, AT1, Kucharewicz et al., 2002; Hypertension, (40): 774-779) was used as positive control. The negative control group was treated with vehicle only. Additional control groups included rats not-treated with isoproterenol which were treated with the peptides, with Losartan or with the vehicle. The analysis included determination of the left ventricle mass and morphometry. In addition, immunofuorescence analysis of fibronectin and collagens I and III deposition was performed by confocal microcopy. Animals Acclimatization: Male Wistar rats Age: 13-14 weeks (250 to 300 g) were maintained in the animal facilities for 7 days before the beginning of the experiment. The animals were exposed to a brightness circle of light-dark cycle of 12hs (day-06:00 to 18:00; night-18:00 to 06:00), and the room temperature was kept at 23±2° C. Heart failure was induced by daily injections of isoproterenol (2 mg/kg/day, subcutaneously) during 7 days. […] Immunofluorescence-labeling and quantitative confocal microscopy was used to investigate the distribution and quantity of collagen types I, III and fibronectin present in the left ventricles. […] Optimal confocal settings (aperture, gain and laser power) were determined at the beginning of each imaging session and then held constant during the analysis of all the samples. […] For quantitative analysis of collagens I, III, and fibronectin, the ImageTool 2.0 image analysis program was used (see “[…] University of Texas Health Science Center at San Antonio website) to measure the fluorescence intensity in images randomly selected. […]

MrgX2 = target: T1, MrgX2 (Homo sapiens, UniProt Q96LB1); test: Calcium flux in MrgX2-transfected CHO-K1 cells; assay type: cell-based; details: for calcium flux relative to the negative control: CHO-K1 co-transfected with MrgX2 and Gα16, 1 μM, about 20-90 seconds; for eliciting calcium flux compared with cortistatin-14: summary statement, MrgX2-expressing cells
T1 construct: expressed in transfected cells; host or cells: CHO-K1 (ATCC-CCL-61), transient co-transfection
T1 sequence (Q96LB1 1-330): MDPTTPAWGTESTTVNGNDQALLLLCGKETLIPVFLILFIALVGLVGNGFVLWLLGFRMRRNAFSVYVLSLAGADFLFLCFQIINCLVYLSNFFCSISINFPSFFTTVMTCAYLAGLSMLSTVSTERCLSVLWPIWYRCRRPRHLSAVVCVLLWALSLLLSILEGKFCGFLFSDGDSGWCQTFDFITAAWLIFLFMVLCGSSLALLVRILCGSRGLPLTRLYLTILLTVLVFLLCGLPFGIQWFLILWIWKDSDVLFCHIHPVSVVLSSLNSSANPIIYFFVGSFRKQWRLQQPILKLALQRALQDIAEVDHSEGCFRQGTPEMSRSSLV
Description: (§1) The assay was carried out in CHO cells were transiently transfected with the GPCR of choice, by utilizing the promiscuous Gα16 to divert signaling to the Gq pathway, thus enabling readout of GPCR activation by testing for Calcium flux as described by Liu et al 2003 (Biomol Screen 8, 39-49).
(§2) All the peptides thus obtained were tested for their ability to change calcium flux in CHO-K1 cells (ATCC-CCL-61) transiently co-transfected with an expression vector containing the GPCR of choice and expression vector containing the Gα16 encoding cDNA. Expression constructs containing cDNA clones for MrgX1, MrgX2, Mas or FPRL1 were commercially obtained in one of the following expression vectors: pcDNA3.1, pCMV6, or MO2.
(§3) Transient transfections were performed using CHO-K1 cells as host cells. Cells (12 million) were plated into T75 flasks on the day preceding transfection. Cells were transfected with the appropriate GPCR expression vector and with a vector expressing Gα16 using a lipid-based reagent, MTI, according to the manufacturer's recommendation. Cells were transfected for 5 hours, then re-plated into 96-well dishes (60,000 cells per well) and grown overnight.
(§4) On the day of the experiment, cells were loaded with Fluo-4-NW (Invitrogen) according to the manufacturer's recommendation. Plates were loaded into a FlexStation™ (Molecular Devices) plate reader and fluorescence was monitored. Seventeen seconds following initiation of reading, cells were stimulated with the indicated agonist/compound at final concentration of 1 μM. Each 96 well plate contained cells transfected with one GPCR expression vector and each of the examined peptides was tested in triplicate.
(§5) We defined a hit as a peptide which elicited a clear and distinct increase in intracellular calcium that is clearly visible and statistically significant upon examination of the calcium trace for at least two repeats. The criterion for statistical significance was a p-value lower than 0.001 in a t-test comparing the levels of calcium before and after peptide addition.
The ability of Peptides to change calcium flux was examined in CHO-K1 cells co-transfected with MrgX2 and Gα16.

FPRL1 [2] = target: T2, FPRL1 (Homo sapiens, UniProt P25090); test: Calcium flux in FPRL1-transfected CHO-K1 cells; assay type: cell-based; design: expressed in transfected cells; host or cells: CHO-K1 (ATCC-CCL-61), transient co-transfection; details: for calcium flux relative to the negative control: CHO-K1 co-transfected with FPRL1 and Gα16, 1 μM, about 20-90 seconds
T2 sequence (P25090 1-351): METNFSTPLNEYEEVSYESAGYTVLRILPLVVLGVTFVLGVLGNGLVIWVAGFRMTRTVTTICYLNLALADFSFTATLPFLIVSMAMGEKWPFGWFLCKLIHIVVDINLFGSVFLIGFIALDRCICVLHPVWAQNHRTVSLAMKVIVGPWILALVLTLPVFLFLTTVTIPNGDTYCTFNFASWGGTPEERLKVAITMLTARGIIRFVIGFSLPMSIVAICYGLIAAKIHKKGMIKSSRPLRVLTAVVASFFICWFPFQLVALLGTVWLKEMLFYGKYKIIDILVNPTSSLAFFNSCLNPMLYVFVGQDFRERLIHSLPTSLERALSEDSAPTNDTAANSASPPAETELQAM
Description: as §1, §2, §3
as §4, with “Seventeen seconds following initiation of reading, cells were stimulated with the indicated agonist/compound at final concentration of 1 μM.” left out
as §5
The ability of Peptides to change calcium flux was examined in CHO-K1 cells co-transfected with FPRL1 and Gα16.
The P33-derived peptides (see FIG. 1): P33_V (SEQ ID NO:7), P33 (SEQ ID NO:6)-mono, P33 (SEQ ID NO:6)-dimer, P33—5 (SEQ ID NO:27), P33—8 (SEQ ID NO:14), P33—9 (SEQ ID NO:15) and P33—10 (SEQ ID NO:16) were tested for their ability to activate FPRL1 using the calcium flux assay in FPRL1-transfected CHO cells. […] The lack of activity of these peptides might be due to reduced potency; insufficient sensitivity of the experimental system, alternative interaction of the receptor, or activation of other pathways, which are not related to calcium flux. Thus, this interaction should be further characterized.

Mas receptor = target: T3, Mas receptor (Homo sapiens, UniProt P04201); test: Calcium flux in Mas-transfected CHO-K1 cells; assay type: cell-based; details: dose response, Mas-transfected cells
T3 construct: expressed in transfected cells; host or cells: CHO-K1 (ATCC-CCL-61), transient co-transfection
T3 sequence (P04201 1-325): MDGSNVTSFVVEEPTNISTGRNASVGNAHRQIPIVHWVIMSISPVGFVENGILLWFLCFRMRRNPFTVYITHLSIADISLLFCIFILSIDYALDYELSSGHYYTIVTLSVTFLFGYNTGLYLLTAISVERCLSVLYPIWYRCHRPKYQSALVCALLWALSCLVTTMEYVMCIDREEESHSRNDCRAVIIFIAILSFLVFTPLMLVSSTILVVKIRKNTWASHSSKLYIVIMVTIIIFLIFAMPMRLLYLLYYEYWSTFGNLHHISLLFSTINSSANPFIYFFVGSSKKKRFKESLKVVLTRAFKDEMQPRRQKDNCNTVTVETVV
Description: as §1, §2, §3, §4, §5
Based on dose response experiments, EC50 best fit values were calculated by non-linear regression of sigmoidal dose-response curves, using Prism version 4 (GraphPad Software Inc., San Diego, Calif.). The formulae for the sigmoidal dose-response curves was defined as Y=Bottom+(Top−Bottom)/(1+10^(Log EC50−X)*HillSlope))
The ability of Peptides to change calcium flux was examined in CHO-K1 cells co-transfected with Mas receptor and Gα16.
The P33 monomer and dimer, as well as other P33 derivative peptides were compared for their ability to induce calcium flux in the Mas-transfected cells at 0.1, 1, 10, 100, 1000 and 10000 nM.

FPRL1 [3] = target: T2, FPRL1; test: Competitive radioligand binding assay to FPRL1 ([125I] WKYMVm); design: expressed in transfected cells; host or cells: CHO cells; details: 0.025 nM [125I] WKYMVm; CHO transfected cells
Description: The specific binding of Peptide 58 (SEQ ID NO:1) to FPRL1 was analyzed by testing its ability to compete with 0.025 nM [^125I] WKYMVm (W peptide), a known agonist of FPRL1, for binding to FPRL1 in CHO transfected cells. CKβ8-1 (aa 46-137), another known ligand of FPRL1 was used as a positive control in this assay (Chiang et al 2006, Pharmacological Reviews 58, 463-487). Peptides were incubated with cells for 90 minutes at 25° C., in the presence of Incubation Buffer (50 mM HEPES, pH 7.4, 100 mM NaCl, 5 mM KCl, 5 mM MgCl2, 2 mM Ca Cl2, 0.5% BSA) and the amount of radioactive W peptide was measured.

Row | calcium flux relative to the negative control (MrgX2) | eliciting calcium flux compared with cortistatin-14 (MrgX2) | calcium flux relative to the negative control (FPRL1 [2]) | Molecule | also measured
1 | increased calcium flux | superior to cortistatin-14 | increased calcium flux | AAQATGPLQDNELPGLDERPPRAHAQHFHKHQLWPSPFRALKPRP (listed as Homo sapiens) [Peptide P94] | –
2 | increased calcium flux | superior to cortistatin-14 | – | AHAQHFHKHQLWPSPFRALKPRP (listed as Homo sapiens) [Peptide 63] | –
3 | – | – | increased calcium flux | TIPMFVPESTSKLQKFTSWFM-NH2 [Peptide P58] | Ki (FPRL1 [3]): 54.1 nM; calcium flux (P58 family) (FPRL1 [2]; dose response, FPRL1 transfected CHO cells): elicited calcium flux

Second part, the molecule before the results:

Row | Molecule | calcium flux relative to the negative control (MrgX2) | eliciting calcium flux compared with cortistatin-14 (MrgX2) | calcium flux relative to the negative control (FPRL1 [2]) | also measured
4 | CCCCc1nc(Cl)c(CO)n1Cc1ccc(-c2ccccc2-c2nn[nH]n2)cc1 [Losartan, reference compound] | – | – | – | left ventricle to body mass ratio (LV/BW) ([1]; isoproterenol 2 mg/kg/day s.c. 7 days, peptides 1 ug/hour/Kg by osmotic minipump, Losartan 1 mg/kg once a day by gavage): did not have an effect
5 | FLGYCIYLNRKRRGDPAFKRRLRD (also: dimer via cysteine; listed as Homo sapiens) [Peptide P61_dimer] | – | – | – | ability to induce calcium flux, relative potency (P61 family) (Mas receptor): more potent than the monomeric P61 peptides; heart hypertrophy as measured by deposition of Fibronectin, Collagen I and Collagen III ([1]; 1 ug/hour/Kg by osmotic minipump, partial data, 3 out of 6 animals of each group): effective in reducing the heart hypertrophy; effect as measured by Fibronectin deposition ([1]; partial data, 3 out of 6 animals, FIG. 40): not significant
